Reference: patent US11299467B2 (Antabio SAS, priority 2017, dated 2022)
Like-named read-outs stand apart in the source and are kept apart here.

Legend:
[1] = PK study, i.v. dosing in mice; type: in vivo, male Swiss albino mice; settings: i.v. 1 mg/kg; for AUC / C0 / clearance: mouse, plasma, iv, male Swiss albino mice; for AUC: read-out: AUC (area under the curve); for C0: read-out: C0 (plasma concentration); for clearance: read-out: Cl (clearance)
Method: Compound A and Example 7 were dosed i.v. at 1 mg/kg to male Swiss albino mice.

[2] = Plasma protein binding, rapid equilibrium dialysis, human plasma; type: in vitro ADME; settings: 100% plasma, 5 h equilibrium dialysis
Method: [table] Test compound was spiked in plasma to a final concentration of 10 μM. An aliquot of 300 μL of plasma was placed in red chamber of the insert and 500 μL of PBS was placed into white chamber of the insert. The plate was incubated at 37° C. in thermomixer at 400 rpm for 5 hours. After incubation, the samples were matrix equilibrated with opposite matrix (10 μL of plasma/100 μL of buffer sample was matched with 100 μL of blank buffer/10 μL of plasma). Matrix matched samples were precipitated with 200 μL of acetonitrile containing internal standard. Samples were vortexed at 1000 rpm for 5 min and centrifuged at 4000 rpm for 10 min. Supernatant was separated, diluted 2 fold with water and analyzed on LC-MS/MS. Blank control samples were processed immediately after the preparation of plasma working stock solutions. These samples served as a measure for calculating the % recovery of test compounds. The percent plasma bound fraction was calculated by the following equations: % Unbound=100*FC/TC % Recovery=100*(FC+TC)/T0 where • TC=Total compound concentration as determined by the calculated concentration on the plasma side of the membrane • FC=Free compound concentration as determined by the calculated concentration on the buffer side of the membrane • T0=Total compound concentration as determined before dialysis For each set of duplicates/compound, the percentage bound, percentage unbound and percentage recovery was determined.

[3] = Plasma stability of test compounds in human plasma; type: in vitro ADME; settings: 1 μM, 37° C.
Method: [table] Test compound and QC compound were incubated at a final concentration of 1 μM in plasma at 37° C. in shaker water bath with gentle shaking. At predetermined time points, reaction was terminated with 200 μL of acetonitrile containing internal standard and centrifuged at 4000×RCF, 4° C. for 20 minutes. Supernatant was separated and analyzed by LC-MS/MS. The following equation was used to determine the percentage remaining of test/QC compound following the procedure above: […]

IMP-1 = IMP-1 (Serratia marcescens, UniProt P52699); experiment: In vitro enzyme inhibition assay, purified IMP-1 (imipenem hydrolysis, UV 299 nm); type: biochemical
Chain of IMP-1 (P52699 19-246, looked up, species assumed): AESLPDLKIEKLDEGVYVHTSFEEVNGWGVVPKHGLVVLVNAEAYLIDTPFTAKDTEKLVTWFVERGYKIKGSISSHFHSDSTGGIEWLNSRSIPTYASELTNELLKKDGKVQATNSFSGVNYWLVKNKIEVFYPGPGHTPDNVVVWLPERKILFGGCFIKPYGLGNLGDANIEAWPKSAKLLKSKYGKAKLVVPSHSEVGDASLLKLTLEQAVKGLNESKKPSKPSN
Method: (§1) Enzyme inhibition assays were performed using purified MBL enzymes (NDM-1; VIM-1; VIM-2; IMP-1) in 10 mM HEPES buffer pH 7.5 in 96-well microtiter plates. Imipenem (300 μM) was used as substrate and its hydrolysis was followed at UV 299 nm during 10 mn every 30 seconds using a Perkin Elmer Envision UV fluorescence plate reader.
(§2) Mean Ki values from multiple experiments are presented below.
(§3) Studies were undertaken to compare the compounds of the invention with structurally similar compounds (“Comp. x”). Experiments were conducted as described above.

K. pneumoniae NTBC104 = experiment: In vivo efficacy, mouse thigh infection with K. pneumoniae NTBC104; settings: meropenem 30 mg/kg plus compound 30 mg/kg, 9 hours post infection
Method: (§4) Mice were infected in the thigh with K. pneumoniae NTBC104. […] The MIC of meropenem in the presence of 8 ug/mL of the compound of Example 2 is 4 ug/mL.
At the end of the experiment (9 hours post infection) the animals were sacrificed and the numbers of colony forming units (CFUs) were measured in order to quantify bacterial load (extent of the infection).

[4] = test system: NTBC104-1 (K. pneumoniae strain expressing NDM-1 and SHV-11); experiment: Meropenem MIC, broth micro-dilution, NTBC104-1; type: cell-based; settings: 8 ug/mL of the compound
Method: The experiments were carried out using the ‘broth micro-dilution method’ according to the protocols M07-A8 established by the Clinical Laboratory Standards Institute (CLSI). Serial dilutions of the β-lactam antibiotic (Meropenem) were prepared in 96-well plates in cation-adjusted Mueller-Hinton broth (CAMHB); the concentration range was defined from 0.03 mg/L to 512 mg/L. The compounds were added at a constant concentration of 8 μg/mL. A bacterial inoculum of each strain (clinical isolates) was adjusted to a 0.5 McFarland turbidity standard in physiologic serum (0.9% NaCl), then diluted 1:100 in CAMHB and added to each well to give a final bacterial cell number of 5×10^5 CFU/well. After incubation for 18-20 hours in a heating chamber at 37° C., the growth inhibition was evaluated by the absence of any bacterial development.
Compounds of the invention were tested at a constant concentration of 8 μg/mL. The clinical strains used in these potentiation experiments were NTBC020 (E. coli strain expressing NDM-1, TEM-1 and CTX-M-15); NTBC035-2 (K. pneumoniae strain expressing NDM-1, CMY-4 and SHV-11); NTBC104-1 (K. pneumoniae strain expressing NDM-1 and SHV-11); NTBC123 (K. pneumoniae strain expressing NDM-1); NTBC018 (C. freundii strain expressing VIM-2); NTBC024 (K. pneumoniae strain expressing VIM-19, TEM-1 and CTX-M-3); NTBC042 (E. coli strain expressing VIM-1, TEM-1, CTX-M-15, SHV-12); NTBC055 (E. Coli strain expressing VIM-1); NTBC062 (K. pneumoniae strain expressing IMP-1 and TEM-1) and NTBC039 (K. oxytoca strain expressing IMP-28).
as §4
Experiments were carried out using the ‘broth micro-dilution method’ according to the protocols M07-A8 established by the Clinical Laboratory Standards Institute (CLSI). […] After incubation for 18-20 hours in a heating chamber at 37° C., the growth inhibition was evaluated by the absence of any bacterial development. […]

VIM-2 = VIM-2 (Escherichia coli, UniProt Q5U7L7); experiment: In vitro enzyme inhibition assay, purified VIM-2 (imipenem hydrolysis, UV 299 nm); type: biochemical
Method: as §1, §2, §3

NDM-1 = NDM-1 (Klebsiella pneumoniae, UniProt C7C422); experiment: In vitro enzyme inhibition assay, purified NDM-1 (imipenem hydrolysis, UV 299 nm); type: biochemical
Chain of NDM-1 (C7C422 29-270, looked up): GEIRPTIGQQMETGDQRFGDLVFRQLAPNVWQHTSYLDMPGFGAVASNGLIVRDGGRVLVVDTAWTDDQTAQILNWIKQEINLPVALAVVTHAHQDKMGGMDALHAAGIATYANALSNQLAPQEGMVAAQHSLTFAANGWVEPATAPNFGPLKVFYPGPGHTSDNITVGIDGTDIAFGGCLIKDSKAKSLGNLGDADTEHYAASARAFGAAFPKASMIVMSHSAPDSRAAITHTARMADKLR
Method: as §1, §2, §3

VIM-1 = VIM-1 (Pseudomonas aeruginosa, UniProt A0A0F7KYQ8); experiment: In vitro enzyme inhibition assay, purified VIM-1 (imipenem hydrolysis, UV 299 nm); type: biochemical
Method: as §1, §2, §3

[5] = comparative study bands, read-out: Ki IMP-1 (comparative study)
[6] = mean Ki from multiple experiments, imipenem 300 μM, Cheng-Prusoff from IC50, read-out: Ki IMP-1
[7] = comparative study bands, read-out: Ki VIM-2 (comparative study)
[8] = mean Ki from multiple experiments, imipenem 300 μM, Cheng-Prusoff from IC50, read-out: Ki VIM-2
[9] = comparative study bands, read-out: Ki NDM-1 (comparative study)
[10] = mean Ki from multiple experiments, imipenem 300 μM, Cheng-Prusoff from IC50, read-out: Ki NDM-1
[11] = comparative study bands, read-out: Ki VIM-1 (comparative study)
[12] = mean Ki from multiple experiments, imipenem 300 μM, Cheng-Prusoff from IC50, read-out: Ki VIM-1

Row | Compound | AUC [1] | C0 [1] | clearance [1] | fraction unbound at 5 h, 10 μM [2] | Stability in human plasma, % remaining ([3]; after 2 hours) | Ki (IMP-1; [5]) | Ki (IMP-1; [6]) | Log10 reduction in CFUs compared to meropenem alone (K. pneumoniae NTBC104) | MIC of meropenem in the presence of the compound, K. pneumoniae NTBC104 [4] | Ki (VIM-2; [7]) | Ki (VIM-2; [8]) | Ki (NDM-1; [9]) | Ki (NDM-1; [10]) | Ki (VIM-1; [11]) | Ki (VIM-1; [12]) | cleared from the blood slower than Compound A ([1]; same dosage, mice) | exposure (AUC) compared to Compound A ([1]; same dosage, mice) | maximum concentration compared to Compound A ([1]; same dosage, mice) | Stability in human plasma, % remaining ([3]; after 5 hours)
1 | NCC(=O)Nc1ccc(S(=O)(=O)Nc2scnc2C(=O)O)cc1F [Comp. A, reference compound] | 0.009 µg·h/mL | 0.017 µg/mL | 49.1 L/h/kg | 0.097 | 29% remaining after 2 hours | – | – | – | – | – | – | – | – | – | – | – | – | – | –
2 | N=C(N)NCC(=O)Nc1c(F)cc(S(=O)(=O)Nc2scnc2C(=O)O)cc1F [Example 2, 5-[[3,5-difluoro-4-[(2-guanidinoacetyl)amino]phenyl]sulfonylamino]thiazole-4-carboxylic acid] | – | – | – | 0.19 | 73% remaining after 2 hours | 0.6 to 5 µM | 1 to 10 µM | 1.6 Log10 | 4 mg/L | 0.05 to 0.1 µM | 0.05 to 0.15 µM | < 0.03 µM | < 0.05 µM | 0.3 to 0.5 µM | 0.2 to 0.5 µM | – | – | – | –
3 | N=C(N)NCC(=O)Nc1ccc(S(=O)(=O)Nc2scnc2C(=O)O)cc1F [Example 7, 5-[[3-fluoro-4-[(2-guanidinoacetyl)amino]phenyl]sulfonylamino]thiazole-4-carboxylic acid] | 1.04 µg·h/mL | 1.81 µg/mL | 0.96 L/h/kg | 0.392 | – | – | 1 to 10 µM | 1.7 Log10 | – | – | 0.05 to 0.15 µM | – | 0.05 to 0.2 µM | – | 0.2 to 0.5 µM | about 50 fold | > 100 fold | > 100 fold | 100% remaining after 5 hours
4 | COc1cc(S(=O)(=O)Nc2scnc2C(=O)O)ccc1NC(=O)CNC(=N)N [Example 16, 5-[[4-[(2-guanidinoacetyl)amino]-3-methoxy-phenyl]sulfonylamino]thiazole-4-carboxylic acid] | – | – | – | – | 89% remaining after 2 hours | 0.15 to 0.6 µM | 0.5 to 1 µM | – | – | < 0.02 µM | < 0.02 µM | 0.03 to 0.1 µM | 0.05 to 0.2 µM | < 0.15 µM | < 0.2 µM | – | – | – | –
5 | N=C(N)NNC(=O)Nc1c(F)cc(S(=O)(=O)Nc2scnc2C(=O)O)cc1F [Example 26, 5-[[3,5-difluoro-4-(guanidinocarbamoylamino)phenyl]sulfonylamino]thiazole-4-carboxylic acid] | – | – | – | – | – | – | 1 to 10 µM | 1.8 Log10 | – | – | 0.02 to 0.05 µM | – | < 0.05 µM | – | 0.2 to 0.5 µM | – | – | – | –
